Read-outs that look alike come from different tables or passages of the source.

This assay addresses Human DDB1 (Homo sapiens (Human), UniProt Q16531). Briefly: Surface plasmon resonance (SPR) binding assay to immobilized His-DDB1. The following applies: SPR. The method in brief: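 Baculovirus-expressed His-DDB1 (High5 cells) amine-coupled to 11,000–13,000 RU on a CM5 chip; compounds injected in multi-cycle format without regeneration at 25° C in HBS-EP pH 7.4 (120 s association/dissociation). Double-referenced, solvent-corrected data fit to steady-state affinity model for KD.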
(In general: In SPR one partner is held on a chip, and binding of the other changes the refractive index at the surface.)

Where [1] appears, read: steady state affinity model, 25° C., read-out: Binding (DDB1 binder activities, Kd).
Where [2] appears, read: DDB1 binding moieties with linkers and/or target protein binding moiety, read-out: Binding (Kd).

Sequence of Human DDB1 (Q16531 whole entry): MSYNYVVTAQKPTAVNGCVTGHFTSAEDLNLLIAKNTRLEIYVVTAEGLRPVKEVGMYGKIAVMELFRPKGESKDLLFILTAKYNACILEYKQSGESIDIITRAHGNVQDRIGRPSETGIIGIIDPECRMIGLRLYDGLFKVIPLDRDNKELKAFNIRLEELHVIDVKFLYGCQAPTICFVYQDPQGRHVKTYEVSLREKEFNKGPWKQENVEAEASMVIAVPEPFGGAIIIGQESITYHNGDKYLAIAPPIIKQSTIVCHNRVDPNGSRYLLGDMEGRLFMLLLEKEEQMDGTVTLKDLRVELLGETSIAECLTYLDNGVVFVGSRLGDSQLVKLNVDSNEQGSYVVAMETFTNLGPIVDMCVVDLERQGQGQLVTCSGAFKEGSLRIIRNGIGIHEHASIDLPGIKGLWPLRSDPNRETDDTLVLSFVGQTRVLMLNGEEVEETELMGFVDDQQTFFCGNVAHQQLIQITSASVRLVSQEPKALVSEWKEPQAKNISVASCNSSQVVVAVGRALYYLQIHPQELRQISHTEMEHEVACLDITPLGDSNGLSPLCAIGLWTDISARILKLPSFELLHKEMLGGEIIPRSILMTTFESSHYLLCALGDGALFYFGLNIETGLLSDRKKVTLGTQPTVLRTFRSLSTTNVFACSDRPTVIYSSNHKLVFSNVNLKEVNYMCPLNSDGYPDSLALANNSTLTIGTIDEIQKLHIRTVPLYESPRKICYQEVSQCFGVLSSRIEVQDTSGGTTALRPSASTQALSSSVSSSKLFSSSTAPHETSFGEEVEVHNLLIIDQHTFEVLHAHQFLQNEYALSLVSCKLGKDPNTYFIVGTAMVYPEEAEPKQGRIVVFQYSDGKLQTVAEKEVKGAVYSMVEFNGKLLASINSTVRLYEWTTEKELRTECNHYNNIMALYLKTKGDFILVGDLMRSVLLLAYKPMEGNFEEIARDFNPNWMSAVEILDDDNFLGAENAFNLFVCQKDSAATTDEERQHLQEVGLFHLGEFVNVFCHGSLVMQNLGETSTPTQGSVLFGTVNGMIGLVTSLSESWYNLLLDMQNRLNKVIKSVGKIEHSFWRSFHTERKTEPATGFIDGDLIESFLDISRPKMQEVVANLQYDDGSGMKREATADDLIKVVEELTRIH

The Kd is the equilibrium constant for the complex coming apart. For `CCCc1ccccc1C(=O)N(C)c1ncc([N+](=O)[O-])s1` [B-104, N-Methyl-N-(5-nitrothiazol-2-yl)-2-propylbenzamide], the Kd under setting [1] lay within 20 to 100 µM.

`CC(C)Cc1ccccc1C(=O)N(C)c1ncc([N+](=O)[O-])s1` [B-106, 2-Isobutyl-N-methyl-N-(5-nitrothiazol-2-yl)benzamide]: the Kd under setting [1] is below 20 µM.

`CC(=O)Nc1ccccc1C(=O)Nc1ccc(I)cc1` [B-60, 2-Acetamido-N-(4-iodophenyl)benzamide]: the Kd under setting [1] is 20 to 100 µM.

Turning to `CC(=O)Nc1ccccc1C(=O)Nc1ccc(C#N)s1` [B-128, 2-Acetamido-N-(5-cyanothiophen-2-yl)benzamide], under setting [1], the Kd fell in the range of 20 to 100 µM.

As to `Cc1cc(C#N)ccc1C(=O)Nc1ncc([N+](=O)[O-])s1` [B-151, 4-Cyano-2-methyl-N-(5-nitrothiazol-2-yl)benzamide], the dissociation constant (Kd) under setting [1] is above 100 µM.

With `CC(=O)Nc1ccccc1C(=O)Nc1ccncn1` [B-57, 2-acetamido-N-(pyrimidin-4-yl)benzamide], the Kd under setting [1] was in the range of 20 to 100 µM.

Turning to `CCCC(=O)Nc1cccc(OC(C)=O)c1C(=O)Nc1ncc([N+](=O)[O-])s1` [B-23, 3-Butyramido-2-((5-nitrothiazol-2-yl)carbamoyl)phenyl acetate], the Kd under setting [1] was 20 to 100 µM.

With `CC(=O)Nc1cc(NCCOCCNC(=O)CN2CCC(n3nc(N4CCCc5cc(-c6cnn(C)c6)c(C(F)F)cc54)c4c3CCN(C(C)=O)C4)CC2)ccc1C(=O)Nc1nc(C)c([N+](=O)[O-])s1` [D-7, 2-Acetamido-4-((2-(2-(2-(4-(5-acetyl-3-(7-(difluoromethyl)-6-(1-methyl-1H-pyrazol-4-yl)-3,4-dihydroquinolin-1 (2H)-yl)-4,5,6,7-tetrahydro-1H-pyrazolo[4,3-c]pyridin-1-yl)piperidin-1-yl)acetamido)ethoxy)ethyl)amino)-N-(4-methyl-5-nitrothiazol-2-yl)benzamide], under setting [2], the Kd lay in the range of 20 to 100 µM.

Regarding `O=C(Nc1ncc([N+](=O)[O-])s1)c1ccccc1NC(=O)C1CC1` [B-62, 2-(Cyclopropanecarboxamido)-N-(5-nitrothiazol-2-yl)benzamide], the Kd under setting [1] was in the range of 20 to 100 µM.

Take `COc1ccc(C(=O)Nc2ncc([N+](=O)[O-])s2)c(C)c1` [B-156, 4-Methoxy-2-methyl-N-(5-nitrothiazol-2-yl)benzamide]: the Kd under setting [1] is above 100 µM.

`CC(=O)Nc1ccccc1C(=O)Nc1ncc(S(C)(=O)=O)s1` [B-47, 2-Acetamido-N-(5-(methylsulfonyl)thiazol-2-yl)benzamide]: the equilibrium dissociation constant (Kd) under setting [1] is above 100 µM.

Turning to `CC(=O)Nc1cc(NCCOCCOCCOCCOCCNC(=O)CN2CCN(c3cccc(-c4cnc5ccc(N6CCC[C@@H]6c6cccc(F)c6)nn45)n3)CC2)ccc1C(=O)Nc1nc(C)c([N+](=O)[O-])s1` [D-23, (R)-2-Acetamido-4-((1-(4-(6-(6-(2-(3-fluorophenyl)pyrrolidin-1-yl)imidazo[1,2-b]pyridazin-3-yl)pyridin-2-yl)piperazin-1-yl)-2-oxo-6,9,12,15-tetraoxa-3-azaheptadecan-17-yl)amino)-N-(4-methyl-5-nitrothiazol-2-yl)benzamide], the Kd under setting [2] is 20 to 100 µM.

For the compound `CCCCNc1ccc(C(=O)Nc2nc(C)c([N+](=O)[O-])s2)c(-c2ccccc2)c1` [B-111, 5-(Butylamino)-N-(4-methyl-5-nitrothiazol-2-yl)-[1,1′-biphenyl]-2-carboxamide], the Kd under setting [1] lay in the range of 20 to 100 µM.

For `CCCCNc1ccc(C(=O)Nc2ncc(-c3ccccc3)s2)c(-c2ccccc2)c1` [B-120, 5-(Butylamino)-N-(5-phenylthiazol-2-yl)-[1,1′-biphenyl]-2-carboxamide], the Kd under setting [1] lay within 20 to 100 µM.

On to `Cc1nc(NC(=O)c2ccccc2NC(=O)CCCCCN)sc1[N+](=O)[O-]` [BL-1, 2-(6-Aminohexanamido)-N-(4-methyl-5-nitrothiazol-2-yl)benzamide], for which the Kd under setting [2] was below 20 µM.

As for `COC(=O)Nc1ccccc1C(=O)Nc1ncc([N+](=O)[O-])s1` [B-65, methyl (2-((5-nitrothiazol-2-yl)carbamoyl)phenyl)carbamate], the Kd under setting [1] was 20 to 100 µM.

Take `CCCC(=O)Nc1cccc(C(=O)Nc2ncc([N+](=O)[O-])s2)c1OC(=O)CCC` [B-24, 2-Butyramido-6-((5-nitrothiazol-2-yl)carbamoyl)phenyl butyrate]: the Kd under setting [1] fell in the range of 20 to 100 µM.

In the case of `CC(=O)Oc1ccccc1C(=O)N(C)c1ncc([N+](=O)[O-])s1` [B-8, 2-(Methyl(5-nitrothiazol-2-yl)carbamoyl)phenyl acetate], the Kd under setting [1] is below 20 µM.

`CCCCNc1cccc(OC(C)=O)c1C(=O)Nc1ncc([N+](=O)[O-])s1` [B-19, 3-(Butylamino)-2-((5-nitrothiazol-2-yl)carbamoyl)phenyl acetate]: under setting [1], the Kd was 20 to 100 µM.

For the compound `CCCC(=O)Nc1ccc(OC(C)=O)c(C(=O)Nc2ncc([N+](=O)[O-])s2)c1` [B-22, 4-Butyramido-2-((5-nitrothiazol-2-yl)carbamoyl)phenyl acetate], the Kd under setting [1] fell in the range of 20 to 100 µM.

Regarding `CCCCNc1ccc(C(=O)Nc2ncc(C#N)s2)c(-c2ccccc2)c1` [B-119, 5-(Butylamino)-N-(5-cyanothiazol-2-yl)-[1,1′-biphenyl]-2-carboxamide], the Kd under setting [1] was 20 to 100 µM.

In the case of `CCOc1cc(NC2CCOCC2)ccc1C(=O)Nc1ncc([N+](=O)[O-])s1` [B-98, 2-Ethoxy-N-(5-nitrothiazol-2-yl)-4-((tetrahydro-2H-pyran-4-yl)amino)benzamide], the Kd under setting [1] fell in the range of 20 to 100 µM.

In the case of `CCCNC(=O)c1cccc(OC(C)=O)c1C(=O)Nc1ncc([N+](=O)[O-])s1` [B-14, 2-((5-Nitrothiazol-2-yl)carbamoyl)-3-(propylcarbamoyl)phenyl acetate], the Kd under setting [1] fell in the range of 20 to 100 µM.

With `Cc1cc(NC(C)C)ccc1C(=O)Nc1ncc([N+](=O)[O-])s1` [B-161, 4-(Isopropylamino)-2-methyl-N-(5-nitrothiazol-2-yl)benzamide], under setting [1], the Kd was above 100 µM.

`CC(=O)Nc1cc(C(=O)NCCOCCOCCOCCN)ccc1C(=O)Nc1nc(C)c([N+](=O)[O-])s1` [BL-5, 2-acetamido-N^4-(2-(2-(2-(2-aminoethoxy)ethoxy)ethoxy)ethyl)-N^1-(4-methyl-5-nitrothiazol-2-yl)terephthalamide]: the Kd under setting [2] was in the range of 20 to 100 µM.

On to `CCCCNc1ccc(C(=O)Nc2nc(Cl)c([N+](=O)[O-])s2)c(-c2ccccc2)c1` [B-112, 5-(Butylamino)-N-(4-chloro-5-nitrothiazol-2-yl)-[1,1′-biphenyl]-2-carboxamide], for which the Kd under setting [1] is below 20 µM.

For the compound `CCCNC(=O)c1cccc(C(=O)Nc2ncc([N+](=O)[O-])s2)c1O` [B-15, 2-hydroxy-N^1-(5-nitrothiazol-2-yl)-N^3-propylisophthalamide], the Kd under setting [1] was in the range of 20 to 100 µM.

For `Cc1cc(Br)ccc1C(=O)Nc1ncc([N+](=O)[O-])s1` [B-152, 4-Bromo-2-methyl-N-(5-nitrothiazol-2-yl)benzamide], the Kd under setting [1] is below 20 µM.

Take `CN(C)S(=O)(=O)c1ccccc1C(=O)Nc1ncc([N+](=O)[O-])s1` [B-82, 2-(N,N-dimethylsulfamoyl)-N-(5-nitrothiazol-2-yl)benzamide]: under setting [1], the Kd was in the range of 20 to 100 µM.

Turning to `NS(=O)(=O)c1ccccc1C(=O)Nc1ncc([N+](=O)[O-])s1` [B-80, N-(5-Nitrothiazol-2-yl)-2-sulfamoylbenzamide], under setting [1], the Kd is 20 to 100 µM.

As to `CC(=O)Nc1ccccc1C(=O)Nc1ccncc1` [B-121, 2-Acetamido-N-(pyridin-4-yl)benzamide], the Kd under setting [1] fell in the range of 20 to 100 µM.

The record behind these values is US20240066136A1, “MODIFIED PROTEINS AND PROTEIN DEGRADERS” (Cullgen (Shanghai), Inc., priority 2020, published 2024).
